From US7105518B2, “Thiopyrane-4-ones as DNA protein kinase inhibitors” (priority 2001, dated 2006)
pIC50: −log10 of the molar value. Read-outs that look alike come from different tables or passages of the source.

Key:
[1] = target: T1, Mammalian DNA-PK, isolated from Hela cell nuclear extract (Homo sapiens, UniProt P78527); assay: DNA-PK inhibition assay (33P-ATP, phosphocellulose filter, scintillation counting); assay type: biochemical; details: for inhibition at 1 µM: read-out: inhibition of DNA-PK at 1 μM; for inhibition at 2 µM: read-out: inhibition of DNA-PK at 2 μM, single concentration 2 μM
T1 construct: Mammalian DNA-PK, isolated from Hela cell nuclear extract; endogenous in cells; host or cells: HeLa cell nuclear extract
Description: In order to assess the inhibitory action of the compounds against DNA-PK in vitro, the following assay was used.
The total assay volume per well was 40 μl.
After 10 minutes of incubation at 30° C. the reactions were initiated by the addition of Na-ATP (50 μM final), ^33P-γATP and a 30mer double stranded DNA oligonucleotide (10 ng/μl) in a volume of 10 μl. Designated positive and negative reaction wells were done in combination with compound wells (unknowns) in order to calculate % enzyme activities. The plates were then shaken for 2 minutes and incubated at 30° C. for 45 minutes.
Following the incubation, the reactions were quenched by the addition of 50 μl 30% acetic acid to each well. The plates were then shaken for 5 minutes and the contents of each plate (80 μl from each well) transferred over to a 96 well Polyfiltronics filtration plate, containing P81-phosphocellulose membrane (TRADE MARK)(Whatman, UK). The solutions were vacuum pumped through the membrane and each well membrane washed four times using 300 μl of 15% acetic acid. The well membranes were then air dried and 20 μl of scintillant was added to each well.
The plates were transferred to a TopCount NXT (TRADE MARK) (Packard, UK) for scintillation counting. Values recorded are counts per minute (cpm) following a 1 minute counting time for each well.
The enzyme activity for each compound is then calculated using the following equation: […]
In Table 1 below, the results are IC50 values (the concentration at which 50% of the enzyme activity is inhibited). These are determined over a range of different concentrations, normally from 10 μM down to 0.01 μM. Such IC50 values are used as comparative values to identify increased compound potencies.

[2] = target: T2, Baculoviral recombinant GST-fused PI 3-kinase (p110α/p85α) (Homo sapiens, UniProt P42336); assay: PI 3-kinase inhibition assay; assay type: biochemical
T2 construct: GST; made in house; host or cells: Sf9 insect cells (baculovirus)
Description: In order to assess the inhibitory action of the compounds against PI 3-kinase in vitro, the following assay was used to determine IC50 values.
PI 3-kinase (1 μl) was diluted in reaction buffer (89 μl of 50 mM Hepes pH 7.5, 150 mM NaCl, 0.1 mM Sodium Orthovanadate, containing 20 μg of phosphatidylinositol) and varying concentrations of inhibitor compound added. […] Reactions were incubated for a further 20 minutes at 37° C., before quenching with the addition of 400 μl of chloroform/methanol (1:1). Reactions were acidified by the addition of 200 μl of 1M HCl, before separation of the organic and aqueous phases by centrifugation at 10,000 g for 30 seconds. The organic phase was transferred to a fresh tube and washed twice with 150 μl of 1M hydrochloric acid/methanol (1:1), discarding the aqueous phase. The washed reaction product was then placed in a white 96-well plate with 100 μl of scintillation fluid and transferred to a TopCount NXT for scintillation counting. Counts per minute, following a one minute counting time, were recorded for each reaction. The inhibition of PI 3-kinase activity by compounds was calculated as described above for the DNA-PK assay.
(§1) The selectivity was determined by the following equation: […]

[3] = target: T3, ATM protein immunoprecipitated from HeLa cell nuclear extract (Homo sapiens, UniProt Q13315); assay: ATM inhibition assay (GSTp53N66 serine 15 phosphorylation, chemiluminescence); assay type: biochemical; details: concentrations between 100 and 1 μM
T3 construct: ATM protein was immunoprecipitated from HeLa cell nuclear extract; endogenous in cells; host or cells: HeLa cell nuclear extract (immunoprecipitate)
Description: In order to assess the inhibitory action of the compounds against ATM in vitro, the following assay was used to determine IC50 values.
ATM protein was immunoprecipitated from HeLa cell nuclear extract using rabbit polyclonal antisera raised to the C-terminal ˜500 amino-acid residues of the human ATM protein. […] 10 μl of immunoprecipitated ATM in Buffer C (50 mM Hepes, pH 7.4, 6 mM MgCl2, 150 mM NaCl, 0.1 mM sodium orthovanadate, 4 mM MnCl2, 0.1 mM dithiothreitol, 10% glycerol) was added to 32.5 μl of buffer C containing 1 μg of the ATM substrate GSTp53N66 in a V-bottomed 96 well polypropylene plate. The GSTp53N66 substrate is the amino terminal 66 amino acid residues of human wild type p53 fused to glutathione S-transferase. […] Varying concentrations of inhibitor were then added. […] After 10 minutes of incubation at 37° C., the reactions were initiated by the addition of 5 μl of 50 μM Na-ATP. After 1 h with shaking at 37° C., 150 μl of phosphate buffered saline (PBS) was added to the reaction and the plate centrifuged at 1500 rpm for 10 minutes. 5 μl of the reaction was then transferred to a 96 well opaque white plate containing 45 μl of PBS to allow the GSTp53N66 substrate to bind to the plate wells. The plate was covered and incubated at room temperature for 1 h with shaking before discarding the contents. The plate wells were washed twice by the addition of PBS prior to the addition of 3% (w/v) bovine serum albumin (BSA) in PBS. The plate was incubated at room temperature for 1 h with shaking before discarding the contents and washing twice with PBS. To the wells, 50 μl of a 1:10, 000 dilution of primary phosphoserine-15 antibody (Cell Signaling Technology, #9284L) in 3% BSA/PBS was added to detect the phosphorylation event on the serine 15 residue of p53 elicited by the ATM kinase. […] The wells were then washed four times with PBS before the addition of chemiluminescence reagent (NEN Renaissance, NEL105). The plate was then shaken briefly, covered with a transparent plate seal and transferred to a TopCount NXT for chemiluminescent counting. Counts per second, following a one second counting time, were recorded for each reaction. The inhibition of ATM activity by compounds was calculated as described above for the DNA-PK assay.
as §1

PI 3-kinase = details: literature, stated the same as for DNA-PK; cited from earlier work
[4] = tested on: mammalian cells in culture; details: literature; cited from earlier work

T3 sequence (Q13315 whole entry): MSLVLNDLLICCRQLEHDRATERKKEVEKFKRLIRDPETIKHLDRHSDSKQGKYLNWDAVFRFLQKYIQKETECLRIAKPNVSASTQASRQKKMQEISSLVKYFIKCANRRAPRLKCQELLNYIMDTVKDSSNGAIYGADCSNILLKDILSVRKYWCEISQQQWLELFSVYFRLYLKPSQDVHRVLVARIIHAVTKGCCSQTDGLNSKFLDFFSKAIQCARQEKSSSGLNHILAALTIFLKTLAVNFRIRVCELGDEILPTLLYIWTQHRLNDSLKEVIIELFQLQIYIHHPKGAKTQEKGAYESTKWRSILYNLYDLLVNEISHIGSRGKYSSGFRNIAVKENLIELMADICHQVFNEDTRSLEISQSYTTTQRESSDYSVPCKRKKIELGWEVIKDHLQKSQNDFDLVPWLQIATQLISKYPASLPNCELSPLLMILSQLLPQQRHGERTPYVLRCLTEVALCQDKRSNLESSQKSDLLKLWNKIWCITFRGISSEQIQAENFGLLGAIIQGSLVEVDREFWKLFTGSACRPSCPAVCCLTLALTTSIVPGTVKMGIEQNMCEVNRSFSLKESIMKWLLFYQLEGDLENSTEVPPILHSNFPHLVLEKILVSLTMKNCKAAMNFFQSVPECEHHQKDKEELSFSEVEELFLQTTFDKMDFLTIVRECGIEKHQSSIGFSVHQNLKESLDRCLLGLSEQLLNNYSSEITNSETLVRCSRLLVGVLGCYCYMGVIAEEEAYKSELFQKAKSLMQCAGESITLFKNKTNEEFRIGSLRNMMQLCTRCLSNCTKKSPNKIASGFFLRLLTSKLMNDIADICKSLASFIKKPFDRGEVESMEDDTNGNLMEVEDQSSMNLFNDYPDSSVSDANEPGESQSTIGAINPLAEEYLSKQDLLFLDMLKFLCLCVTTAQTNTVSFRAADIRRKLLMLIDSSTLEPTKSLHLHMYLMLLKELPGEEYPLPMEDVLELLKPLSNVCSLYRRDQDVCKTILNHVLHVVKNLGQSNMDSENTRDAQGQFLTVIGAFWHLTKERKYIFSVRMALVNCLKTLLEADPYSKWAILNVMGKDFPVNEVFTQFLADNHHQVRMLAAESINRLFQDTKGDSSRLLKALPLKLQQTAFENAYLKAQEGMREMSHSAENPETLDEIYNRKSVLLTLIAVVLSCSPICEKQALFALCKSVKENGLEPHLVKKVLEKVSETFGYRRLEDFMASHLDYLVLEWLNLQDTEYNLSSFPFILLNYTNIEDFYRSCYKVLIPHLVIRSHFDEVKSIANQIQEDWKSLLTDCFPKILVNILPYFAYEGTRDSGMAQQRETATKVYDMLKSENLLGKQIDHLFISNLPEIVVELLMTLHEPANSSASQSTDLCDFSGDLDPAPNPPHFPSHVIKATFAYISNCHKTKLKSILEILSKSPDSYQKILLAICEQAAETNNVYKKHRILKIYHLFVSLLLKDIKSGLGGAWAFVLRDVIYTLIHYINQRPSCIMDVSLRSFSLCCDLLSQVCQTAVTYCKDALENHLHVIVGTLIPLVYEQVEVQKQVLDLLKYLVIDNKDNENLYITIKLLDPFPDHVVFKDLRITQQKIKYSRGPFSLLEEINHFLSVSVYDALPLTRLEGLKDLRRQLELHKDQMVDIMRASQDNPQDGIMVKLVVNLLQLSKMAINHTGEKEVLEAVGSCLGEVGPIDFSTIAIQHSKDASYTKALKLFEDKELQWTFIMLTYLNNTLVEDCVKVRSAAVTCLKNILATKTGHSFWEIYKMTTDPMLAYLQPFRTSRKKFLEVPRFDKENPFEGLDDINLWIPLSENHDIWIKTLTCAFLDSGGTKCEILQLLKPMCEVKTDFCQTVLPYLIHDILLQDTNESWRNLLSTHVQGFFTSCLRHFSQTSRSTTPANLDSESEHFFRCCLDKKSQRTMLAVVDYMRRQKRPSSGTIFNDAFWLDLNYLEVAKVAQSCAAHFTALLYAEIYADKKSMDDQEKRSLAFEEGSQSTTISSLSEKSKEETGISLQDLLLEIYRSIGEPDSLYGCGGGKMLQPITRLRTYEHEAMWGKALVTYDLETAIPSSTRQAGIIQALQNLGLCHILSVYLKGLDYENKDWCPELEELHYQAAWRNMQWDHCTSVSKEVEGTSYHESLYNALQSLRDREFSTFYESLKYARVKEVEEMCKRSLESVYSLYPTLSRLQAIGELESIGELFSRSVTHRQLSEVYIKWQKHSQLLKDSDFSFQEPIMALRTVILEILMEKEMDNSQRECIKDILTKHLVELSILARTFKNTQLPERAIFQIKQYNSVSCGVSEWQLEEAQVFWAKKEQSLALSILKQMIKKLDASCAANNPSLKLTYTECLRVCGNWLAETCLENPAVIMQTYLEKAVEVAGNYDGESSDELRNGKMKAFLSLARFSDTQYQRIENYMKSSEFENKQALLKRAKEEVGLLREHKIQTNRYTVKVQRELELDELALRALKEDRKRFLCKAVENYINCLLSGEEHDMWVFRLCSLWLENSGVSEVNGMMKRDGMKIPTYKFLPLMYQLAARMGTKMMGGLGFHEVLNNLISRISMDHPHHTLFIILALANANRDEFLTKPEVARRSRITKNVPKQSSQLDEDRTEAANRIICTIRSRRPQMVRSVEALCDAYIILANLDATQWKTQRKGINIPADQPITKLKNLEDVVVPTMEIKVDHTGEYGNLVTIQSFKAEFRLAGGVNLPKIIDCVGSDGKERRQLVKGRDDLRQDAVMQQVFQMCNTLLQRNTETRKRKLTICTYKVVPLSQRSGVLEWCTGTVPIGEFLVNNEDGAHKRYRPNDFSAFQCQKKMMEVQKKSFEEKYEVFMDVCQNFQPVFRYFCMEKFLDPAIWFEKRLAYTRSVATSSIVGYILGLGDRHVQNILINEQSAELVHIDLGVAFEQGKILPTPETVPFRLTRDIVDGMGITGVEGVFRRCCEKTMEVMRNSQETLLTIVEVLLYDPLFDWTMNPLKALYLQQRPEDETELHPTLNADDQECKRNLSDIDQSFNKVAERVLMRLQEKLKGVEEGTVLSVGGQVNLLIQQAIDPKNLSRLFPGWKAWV
T2 sequence (P42336 whole entry, species assumed, the tested form may be a part): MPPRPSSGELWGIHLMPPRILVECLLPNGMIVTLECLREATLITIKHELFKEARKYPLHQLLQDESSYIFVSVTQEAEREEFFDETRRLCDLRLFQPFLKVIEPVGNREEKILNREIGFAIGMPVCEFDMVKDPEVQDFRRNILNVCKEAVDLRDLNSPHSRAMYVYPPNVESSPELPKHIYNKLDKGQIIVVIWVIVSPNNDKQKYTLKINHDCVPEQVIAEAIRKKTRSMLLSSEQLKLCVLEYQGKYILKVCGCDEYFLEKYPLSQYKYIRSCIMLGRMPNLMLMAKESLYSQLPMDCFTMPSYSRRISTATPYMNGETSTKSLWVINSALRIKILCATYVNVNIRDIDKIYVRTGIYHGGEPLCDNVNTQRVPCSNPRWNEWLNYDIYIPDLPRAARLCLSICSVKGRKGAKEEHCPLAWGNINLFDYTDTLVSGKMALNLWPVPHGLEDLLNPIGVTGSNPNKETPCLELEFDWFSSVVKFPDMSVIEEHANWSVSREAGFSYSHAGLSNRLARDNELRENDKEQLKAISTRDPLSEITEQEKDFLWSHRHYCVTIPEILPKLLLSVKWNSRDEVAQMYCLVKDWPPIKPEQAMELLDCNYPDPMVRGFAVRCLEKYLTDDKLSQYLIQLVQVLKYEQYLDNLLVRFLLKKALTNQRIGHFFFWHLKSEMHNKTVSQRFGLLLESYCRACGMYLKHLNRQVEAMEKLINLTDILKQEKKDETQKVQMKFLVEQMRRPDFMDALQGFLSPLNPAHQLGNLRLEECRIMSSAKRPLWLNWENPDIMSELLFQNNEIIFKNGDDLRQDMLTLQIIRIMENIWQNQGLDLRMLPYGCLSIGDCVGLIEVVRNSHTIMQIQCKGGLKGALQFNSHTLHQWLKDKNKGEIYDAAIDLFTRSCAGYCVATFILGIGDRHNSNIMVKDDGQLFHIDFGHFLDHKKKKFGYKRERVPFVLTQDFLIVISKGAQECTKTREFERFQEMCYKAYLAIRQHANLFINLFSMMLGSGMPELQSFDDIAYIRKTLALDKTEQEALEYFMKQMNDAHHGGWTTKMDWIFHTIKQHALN
T2 sequence (P27986 whole entry partner, species assumed, the tested form may be a part): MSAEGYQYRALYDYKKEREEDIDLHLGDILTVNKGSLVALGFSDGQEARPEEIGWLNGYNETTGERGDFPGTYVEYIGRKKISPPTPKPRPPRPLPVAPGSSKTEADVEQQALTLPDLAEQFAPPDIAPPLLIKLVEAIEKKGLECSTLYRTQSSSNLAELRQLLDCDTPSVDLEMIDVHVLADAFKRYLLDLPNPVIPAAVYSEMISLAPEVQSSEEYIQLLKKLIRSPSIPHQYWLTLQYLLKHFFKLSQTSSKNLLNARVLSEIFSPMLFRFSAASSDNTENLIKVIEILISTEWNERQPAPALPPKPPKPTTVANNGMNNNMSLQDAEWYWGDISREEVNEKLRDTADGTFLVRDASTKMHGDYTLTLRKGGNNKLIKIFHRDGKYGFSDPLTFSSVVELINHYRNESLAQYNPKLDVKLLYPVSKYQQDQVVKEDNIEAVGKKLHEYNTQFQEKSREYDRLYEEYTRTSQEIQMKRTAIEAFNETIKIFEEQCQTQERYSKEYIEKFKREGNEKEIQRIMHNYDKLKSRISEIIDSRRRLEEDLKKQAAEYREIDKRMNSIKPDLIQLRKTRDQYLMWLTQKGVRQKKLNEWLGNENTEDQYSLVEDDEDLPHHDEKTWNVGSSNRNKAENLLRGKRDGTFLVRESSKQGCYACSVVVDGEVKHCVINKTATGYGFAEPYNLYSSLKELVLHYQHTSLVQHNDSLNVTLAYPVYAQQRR

In the case of `NCc1ccc(-c2cccc(-c3cc(=O)cc(N4CCOCC4)s3)c2)cc1` [Compound 46], the pIC50 [1] was ≥ 5.70, the inhibition at 1 µM [1] was ≥ 10% and the inhibition at 2 µM [1] was ≥ 50%.

In the case of `O=Cc1sccc1-c1cccc(-c2cc(=O)cc(N3CCOCC3)s2)c1` [Compound 70], the pIC50 [1] was ≥ 5.70, the inhibition at 1 µM ([1]; single concentration 1 μM) was ≥ 10% and the inhibition at 2 µM [1] was ≥ 50%.

With `O=c1cc(-c2ccc(Cl)cc2)sc(N2CCOCC2)c1` [Compound 4, 2-(4—Chloro-phenyl)-6-morpholin-4-yl-thiopyran-4-one] the pIC50 [2] was 5.30 and the pIC50 [3] was < 4.00.

With `O=c1cc(-c2cccc(-c3cccc4ccccc34)c2)sc(N2CCOCC2)c1` [Compound 69] the pIC50 [1] was ≥ 5.70, the inhibition at 1 µM ([1]; single concentration 1 μM) was ≥ 10% and the inhibition at 2 µM [1] was ≥ 50%.

In the case of `O=c1cc(-c2ccccc2)sc(N2CCOCC2)c1` [Compound 1, 2-Morpholin-4-yl-6-phenyl-thiopyran-4-one], the melting point was 160 to 161 °C, the pIC50 [2] was 5.00 and the pIC50 [3] was < 4.00.

In the case of `O=c1cc(-c2ccc(-c3cccc4ccccc34)cc2)sc(N2CCOCC2)c1` [Compound 59], the inhibition at 1 µM ([1]; single concentration 1 μM) was ≥ 10% and the inhibition at 2 µM [1] was ≥ 50%.

In the case of `O=c1cc(-c2cccc(-c3ccc(CO)cc3)c2)sc(N2CCOCC2)c1` [Compound 41], the pIC50 [1] was ≥ 5.70, the inhibition at 1 µM [1] was ≥ 10% and the inhibition at 2 µM [1] was ≥ 50%.

In the case of `O=c1cc(-c2cccc(Br)c2)sc(N2CCOCC2)c1` [Compound 6, 6-(3-Bromophenyl)-2-morpholin-4-yl-thiopyran-4-one], the melting point was 181 to 182 °C.

For `Nc1ccc(-c2cccc(-c3cc(=O)cc(N4CCOCC4)s3)c2)cc1` [Compound 48], the pIC50 [1] was ≥ 5.70, the inhibition at 1 µM ([1]; single concentration 1 μM) was ≥ 10% and the inhibition at 2 µM [1] was ≥ 50%.

With `COc1ccc(-c2cc(=O)cc(N3CCOCC3)s2)cc1` [Compound 3, 2-(4-Methoxy-phenyl)-6-morpholin-4-yl-thiopyran-4-one] the pIC50 [2] was 5.10 and the pIC50 [3] was < 4.00.

For `CC(C)(C)c1ccc(-c2cc(=O)cc(N3CCOCC3)s2)cc1` [Compound 2, 2-(4-tert-Butyl-phenyl)-6-morpholin-4-yl-thiopyran-4-one], the melting point was 172 to 173 °C, the pIC50 [2] was 4.40 and the pIC50 [3] was < 4.00.

For `O=c1cc(-c2cccc(-c3ccccc3-c3ccccc3)c2)sc(N2CCOCC2)c1` [Compound 30], the pIC50 [1] was ≥ 5.70, the inhibition at 1 µM [1] was ≥ 10% and the inhibition at 2 µM [1] was ≥ 50%.

In the case of `O=c1cc(-c2cccc(-c3cccc(O)c3)c2)sc(N2CCOCC2)c1` [Compound 42], the inhibition at 1 µM ([1]; single concentration 1 μM) was ≥ 10% and the inhibition at 2 µM [1] was ≥ 50%.

In the case of `CC(=O)Nc1cccc(-c2cccc(-c3cc(=O)cc(N4CCOCC4)s3)c2)c1` [Compound 31], the inhibition at 1 µM ([1]; single concentration 1 μM) was ≥ 10% and the inhibition at 2 µM [1] was ≥ 50%.

For `Cc1ccc(-c2cccc(-c3cc(=O)cc(N4CCOCC4)s3)c2)c2ccccc12` [Compound 63], the pIC50 [1] was ≥ 5.70, the inhibition at 1 µM ([1]; single concentration 1 μM) was ≥ 10% and the inhibition at 2 µM [1] was ≥ 50%.

In the case of `CC(=O)c1cccc(-c2cccc(-c3cc(=O)cc(N4CCOCC4)s3)c2)c1` [Compound 33], the pIC50 [1] was ≥ 5.70, the inhibition at 1 µM [1] was ≥ 10% and the inhibition at 2 µM [1] was ≥ 50%.

In the case of `O=c1cc(-c2cccc(-c3cccc(CO)c3)c2)sc(N2CCOCC2)c1` [Compound 40], the pIC50 [1] was ≥ 5.70, the inhibition at 1 µM [1] was ≥ 10% and the inhibition at 2 µM [1] was ≥ 50%.

For `O=c1cc(-c2ccc(-c3cccs3)cc2)sc(N2CCOCC2)c1` [Compound 57], the pIC50 [1] was ≥ 5.70, the inhibition at 1 µM ([1]; single concentration 1 μM) was ≥ 10% and the inhibition at 2 µM [1] was ≥ 50%.

In the case of `O=c1cc(N2CCOCC2)oc2c(-c3ccccc3)cccc12` [LY294002, reference compound], the pIC50 [1] is given as 5.82, the pIC50 [3] is given as < 4.00 and the pIC50 (PI 3-kinase) is given as ~6.00. For the same compound, the “sensitisation of cells to the effects of IR” value [4] was “weakly sensitise cells to the effects of IR”.

For `O=c1cc(-c2cccc(-c3csc4ccccc34)c2)sc(N2CCOCC2)c1` [Compound 64], the pIC50 [1] was ≥ 5.70, the inhibition at 1 µM ([1]; single concentration 1 μM) was ≥ 10% and the inhibition at 2 µM [1] was ≥ 50%.

For `O=c1cc(-c2cccc(-c3cccc(-c4ccccc4)c3)c2)sc(N2CCOCC2)c1` [Compound 35], the pIC50 [1] was ≥ 5.70, the inhibition at 1 µM [1] was ≥ 10% and the inhibition at 2 µM [1] was ≥ 50%.

In the case of `O=c1cc(-c2ccc(Br)cc2)sc(N2CCOCC2)c1` [Compound 5, 6-(4-Broinophenyl)-2-morpholin-4-yl-thiopyran-4-one], the melting point was 214 to 215 °C.

With `O=c1cc(-c2cccc(-c3ccc(O)cc3)c2)sc(N2CCOCC2)c1` [Compound 43] the pIC50 [1] was ≥ 5.70, the inhibition at 1 µM ([1]; single concentration 1 μM) was ≥ 10% and the inhibition at 2 µM [1] was ≥ 50%.

In the case of `O=c1cc(-c2ccc(-c3cccc(O)c3)cc2)sc(N2CCOCC2)c1` [Compound 14], the pIC50 [1] was ≥ 5.70, the inhibition at 1 µM ([1]; single concentration 1 μM) was ≥ 10% and the inhibition at 2 µM [1] was ≥ 50%.

With `CC(=O)Nc1ccccc1-c1cccc(-c2cc(=O)cc(N3CCOCC3)s2)c1` [Compound 51] the pIC50 [1] was ≥ 5.70, the inhibition at 1 µM ([1]; single concentration 1 μM) was ≥ 10% and the inhibition at 2 µM [1] was ≥ 50%.

For `Nc1cccc(-c2cccc(-c3cc(=O)cc(N4CCOCC4)s3)c2)c1` [Compound 49], the pIC50 [1] was ≥ 5.70, the inhibition at 1 µM ([1]; single concentration 1 μM) was ≥ 10% and the inhibition at 2 µM [1] was ≥ 50%.
